# Results reported in US12600988B2, “Coronavirus pseudovirus packaging system, packaging method therefor, and application of coronavirus pseudovirus in evaluating disinfection efficacy” (priority 2020, dated 2026).
# “Also recorded” adds a separate entry of the source.
# Test system: COVID-19 pseudovirus
# Set-up: species or system COVID-19 (SARS-CoV-2)
smiles,measurement,value
O=[O+][O-] [ozone],inactivation of COVID-19 pseudovirus,almost completely inactivated; also recorded: complete inactivation
